The values that follow come from BindingDB's records for doi:10.1016/j.ejmech.2023.115410 (Jawaharlal Nehru University, 2023).

pIC50: −log10 of the molar value.

The nature of assay [1]: Inhibition of avian Influenza A virus SN 33 (H1N1) neuraminidase infected in dog MDCK cells using MU-NANA as substrate assessed as reduction in viral replication incubated for 72 hrs by spectrofluorometric analysis.
The nature of assay [2]: Inhibition of […] Influenza A Taiwan 3446 2002(H3N2) neuraminidase infected in dog MDCK cells using MU-NANA as substrate assessed as reduction in viral replication incubated for 72 hrs by spectrofluorometric analysis.

Regarding `CC(=O)N[C@H]1[C@H]([C@H](O)[C@H](O)CO)OC(C(=O)O)=C[C@@H]1NC(=N)NC(=O)CSc1ccc2ccccc2c1`, the pIC50 (usually −log10 of the IC50, conventionally taken in molar units) in assay [1] is 7.70; in assay [2], 7.60.

With `CC(=O)N[C@H]1[C@H]([C@H](O)[C@H](O)CO)OC(C(=O)O)=C[C@@H]1NC(=N)NC(=O)CCc1ccc2ccccc2c1`, the pIC50 was 7.12 in assay [1] and 7.17 in assay [2].
